# Test results published in ChEMBL document CHEMBL4190172 (Medchemcomm, 2016).
# Calls of active or inactive are those of the source. The rule behind the calls is not given here.
# Key:
# [1] = biological target: Histone deacetylase 1 (Homo sapiens) (UniProt Q13547); assay: Inhibition of recombinant human C-terminal His/flag-tagged HDAC1 using Boc-Lys-(Ac)-AMC as substrate after 1 hr by fluorescence assay
# [2] = biological target: Histone deacetylase 2 (Homo sapiens) (UniProt Q92769); assay: Inhibition of recombinant human C-terminal flag-tagged HDAC2 using Boc-Lys-(Ac)-AMC as substrate after 1 hr by fluorescence assay
# Sequence of Histone deacetylase 2 (Homo sapiens) (Q92769 whole entry): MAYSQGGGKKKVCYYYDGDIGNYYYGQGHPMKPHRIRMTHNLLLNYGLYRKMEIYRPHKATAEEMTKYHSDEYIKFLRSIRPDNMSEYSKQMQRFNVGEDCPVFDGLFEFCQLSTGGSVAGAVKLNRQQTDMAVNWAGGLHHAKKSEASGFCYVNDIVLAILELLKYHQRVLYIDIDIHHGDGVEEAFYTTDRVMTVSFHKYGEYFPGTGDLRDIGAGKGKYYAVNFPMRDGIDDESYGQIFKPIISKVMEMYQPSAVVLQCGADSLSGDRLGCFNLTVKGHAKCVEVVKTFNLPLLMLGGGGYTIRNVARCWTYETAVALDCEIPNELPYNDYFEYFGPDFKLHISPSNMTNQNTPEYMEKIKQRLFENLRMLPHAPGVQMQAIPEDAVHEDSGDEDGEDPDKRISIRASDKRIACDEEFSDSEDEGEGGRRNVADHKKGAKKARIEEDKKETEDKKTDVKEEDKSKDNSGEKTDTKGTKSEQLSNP
# [3] = biological target: T1, Histone deacetylase 3/Nuclear receptor corepressor 2 (HDAC3/NCoR2) (Homo sapiens) (UniProt O15379+Q9Y618); assay: Inhibition of recombinant human C-terminal His-tagged HDAC3/NcoR2 using Boc-Lys-(Ac)-AMC as substrate after 1 hr by fluorescence assay; assay type: protein-complex assay
# [4] = biological target: Histone deacetylase 1 (Homo sapiens) (UniProt Q13547); assay: Inhibition of recombinant human C-terminal His/flag-tagged HDAC1 at 2 to 16 uM using Boc-Lys-(Ac)-AMC as substrate in presence of Lys-C by fluorescence assay; conditions: TDE = time-dependent effect
# [5] = biological target: Histone deacetylase 2 (Homo sapiens) (UniProt Q92769); assay: Inhibition of recombinant human C-terminal His/flag-tagged HDAC2 at 2 to 16 uM using Boc-Lys-(Ac)-AMC as substrate in presence of Lys-C by fluorescence assay; conditions: TDE = time-dependent effect
# [6] = biological target: T1, Histone deacetylase 3/Nuclear receptor corepressor 2 (HDAC3/NCoR2) (Homo sapiens); assay: Inhibition of recombinant human C-terminal His/flag-tagged HDAC3/NcoR2 at 2 to 16 uM using Boc-Lys-(Ac)-AMC as substrate in presence of Lys-C by fluorescence assay; assay type: protein-complex assay; conditions: TDE = time-dependent effect
# [7] = biological target: Histone deacetylase 1 (Homo sapiens) (UniProt Q13547); assay: Inhibition of recombinant human C-terminal His/flag-tagged HDAC1 at 2 to 16 uM using Boc-Lys-(Ac)-AMC as substrate preincubated for 1 hr followed by substrate addition in presence of Lys-C by fluorescence assay
# [8] = biological target: Histone deacetylase 2 (Homo sapiens) (UniProt Q92769); assay: Inhibition of recombinant human C-terminal His/flag-tagged HDAC2 at 2 to 16 uM using Boc-Lys-(Ac)-AMC as substrate preincubated for 1 hr followed by substrate addition in presence of Lys-C by fluorescence assay
# [9] = biological target: T1, Histone deacetylase 3/Nuclear receptor corepressor 2 (HDAC3/NCoR2) (Homo sapiens); assay: Inhibition of recombinant human C-terminal His/flag-tagged HDAC3/NcoR2 at 2 to 16 uM using Boc-Lys-(Ac)-AMC as substrate preincubated for 1 hr followed by substrate addition in presence of Lys-C by fluorescence assay; assay type: protein-complex assay
# RAW264.7 [10] = assay: Cytotoxicity against LPS/IFNgamma-stimulated mouse RAW264.7 cells assessed as decrease in cell viability incubated for 16 hrs followed by LPS/IFNgamma stimulation for last 4 hrs by MTS assay; assay type: cell-based; conditions: raw264.7, 16 h
# [11] = biological target: Transcription factor p65 (Mus musculus) (UniProt Q04207); assay: Inhibition of NF-kappaB p65 transcriptional activity in LPS/IFNgamma-stimulated mouse RAW264.7 cells at 10 uM incubated for 20 hrs followed by LPS/IFNgamma stimulation for last 4 hrs by SEAP reporter gene assay; assay type: cell-based
# Sequence of Transcription factor p65 (Mus musculus) (Q04207 whole entry): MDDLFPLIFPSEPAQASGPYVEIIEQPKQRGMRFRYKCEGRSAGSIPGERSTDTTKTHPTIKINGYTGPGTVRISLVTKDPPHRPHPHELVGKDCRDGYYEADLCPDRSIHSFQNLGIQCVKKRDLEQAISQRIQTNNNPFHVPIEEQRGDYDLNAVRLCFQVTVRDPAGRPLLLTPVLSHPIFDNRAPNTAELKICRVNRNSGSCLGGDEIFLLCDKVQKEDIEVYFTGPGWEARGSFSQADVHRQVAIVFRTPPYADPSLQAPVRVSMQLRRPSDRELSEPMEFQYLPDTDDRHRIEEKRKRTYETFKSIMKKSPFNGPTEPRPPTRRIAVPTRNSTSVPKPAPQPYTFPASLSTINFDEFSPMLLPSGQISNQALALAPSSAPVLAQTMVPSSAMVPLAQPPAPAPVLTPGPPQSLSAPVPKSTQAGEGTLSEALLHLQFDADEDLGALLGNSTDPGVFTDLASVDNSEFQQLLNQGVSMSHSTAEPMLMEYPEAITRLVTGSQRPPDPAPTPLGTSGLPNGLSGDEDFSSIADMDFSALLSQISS
# [12] = biological target: Transcription factor p65 (Mus musculus) (UniProt Q04207); assay: Inhibition of NF-kappaB p65 nuclear translocation in LPS/IFNgamma-stimulated mouse RAW264.7 cells at 1 uM incubated for 20 hrs followed by LPS/IFNgamma addition measured after 1 hr by Hoechst 33342 staining based immunofluorescence microscopy; assay type: cell-based
# RAW264.7 [13] = assay: Antiinflammatory activity in LPS/IFNgamma-stimulated mouse RAW264.7 cells assessed as decrease in TNFalpha mRNA level incubated for 20 hrs followed by LPS/IFNgamma stimulation for last 4 hrs by qRT-PCR analysis; assay type: functional, cell-based
# RAW264.7 [14] = assay: Antiinflammatory activity in LPS/IFNgamma-stimulated mouse RAW264.7 cells assessed as decrease in IL-6 mRNA level incubated for 20 hrs followed by LPS/IFNgamma stimulation for last 4 hrs by qRT-PCR analysis; assay type: functional, cell-based
# RAW264.7 [15] = assay: Antiinflammatory activity in LPS/IFNgamma-stimulated mouse RAW264.7 cells assessed as decrease in IL-6 mRNA level at 10 uM incubated for 20 hrs followed by LPS/IFNgamma stimulation for last 4 hrs by qRT-PCR analysis; assay type: functional; design: scale not given: the % may be the effect or the level left
# RAW264.7 [16] = assay: Antiinflammatory activity in LPS/IFNgamma-stimulated mouse RAW264.7 cells assessed as decrease in iNOS mRNA level at 10 uM incubated for 20 hrs followed by LPS/IFNgamma stimulation for last 4 hrs by qRT-PCR analysis; assay type: functional, cell-based
# RAW264.7 [17] = assay: Antiinflammatory activity in LPS/IFNgamma-stimulated mouse RAW264.7 cells assessed as decrease in IL-1beta mRNA level at 1 to 10 uM incubated for 20 hrs followed by LPS/IFNgamma stimulation for last 4 hrs by qRT-PCR analysis; assay type: functional, cell-based
# RAW264.7 [18] = assay: Antiinflammatory activity in LPS/IFNgamma-stimulated mouse RAW264.7 cells assessed as decrease in IL-12b mRNA level at 1 to 10 uM incubated for 20 hrs followed by LPS/IFNgamma stimulation for last 4 hrs by qRT-PCR analysis; assay type: functional, cell-based
# [19] = biological target: T2, Histone deacetylase 8 (Homo sapiens) (UniProt Q9BY41); assay: Inhibition of recombinant human C-terminal His-tagged HDAC8 up to 50 uM using Boc-Lys-(Ac)-AMC as substrate after 1 hr by fluorescence assay
# T2 sequence (whole entry): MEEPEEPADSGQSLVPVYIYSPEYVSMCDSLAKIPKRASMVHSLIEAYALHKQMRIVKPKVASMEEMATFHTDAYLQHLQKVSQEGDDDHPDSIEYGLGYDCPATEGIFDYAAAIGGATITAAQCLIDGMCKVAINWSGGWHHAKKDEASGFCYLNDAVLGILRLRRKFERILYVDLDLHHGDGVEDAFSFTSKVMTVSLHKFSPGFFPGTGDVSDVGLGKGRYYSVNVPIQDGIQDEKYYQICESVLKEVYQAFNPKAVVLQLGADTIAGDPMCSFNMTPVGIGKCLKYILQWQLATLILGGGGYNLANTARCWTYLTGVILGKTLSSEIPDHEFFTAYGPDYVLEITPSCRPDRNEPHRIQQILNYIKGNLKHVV
# [20] = biological target: Transcription factor p65 (Mus musculus) (UniProt Q04207); assay: Inhibition of NF-kappaB p65 transcriptional activity in LPS/IFNgamma-stimulated mouse RAW264.7 cells at 1 to 5 uM incubated for 20 hrs followed by LPS/IFNgamma stimulation for last 4 hrs by SEAP reporter gene assay; assay type: cell-based
# Sequence of Histone deacetylase 1 (Homo sapiens) (Q13547 whole entry): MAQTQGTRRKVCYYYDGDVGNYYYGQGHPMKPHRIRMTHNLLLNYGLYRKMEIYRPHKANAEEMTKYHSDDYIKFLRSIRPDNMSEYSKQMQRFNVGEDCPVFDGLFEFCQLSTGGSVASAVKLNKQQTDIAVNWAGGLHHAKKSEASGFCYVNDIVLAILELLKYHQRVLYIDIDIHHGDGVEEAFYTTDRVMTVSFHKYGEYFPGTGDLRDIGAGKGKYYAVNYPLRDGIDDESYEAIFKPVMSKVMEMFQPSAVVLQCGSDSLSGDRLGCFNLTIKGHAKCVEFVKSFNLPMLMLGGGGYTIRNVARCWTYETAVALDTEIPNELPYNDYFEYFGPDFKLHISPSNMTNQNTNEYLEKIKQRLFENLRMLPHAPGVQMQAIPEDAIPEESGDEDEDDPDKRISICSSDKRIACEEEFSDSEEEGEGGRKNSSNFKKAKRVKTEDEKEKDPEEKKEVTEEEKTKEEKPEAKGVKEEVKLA
Structure (SMILES),inhibition [1],inhibition [2],inhibition [3],inhibition [4],inhibition [5],inhibition [6],inhibition [7],inhibition [8],inhibition [9],Activity (RAW264.7 [10]),inhibition [11],inhibition [12],Activity (RAW264.7 [13]),Activity (RAW264.7 [14]),Activity (RAW264.7 [15]) [%],Activity (RAW264.7 [16]),Activity (RAW264.7 [17]),Activity (RAW264.7 [18]),inhibition [19],inhibition [20]
Nc1ccccc1NC(=O)c1ccc(CNc2ccc(/N=N/c3ccccc3)cc2)cc1,Active,Active,Active,Tde,Tde,Tde,Active,Active,Active,Non-Toxic,< 50%,Active,Dose-dependent effect,Dose-dependent effect,90,Active,Active,Active,–,–
CC(C)(C)OC(=O)Nc1ccccc1NC(=O)c1ccc(CNc2ccccc2/N=N/c2ccccc2)cc1,Active,Active,Active,Tde,Tde,Tde,Active,Active,Active,Non-Toxic,< 50%,Active,–,–,–,inactive,–,–,inactive,–
Nc1ccccc1NC(=O)c1ccc(CNc2ccccc2/N=N/c2ccccc2)cc1,–,–,–,–,–,–,–,–,–,–,–,–,–,–,–,–,–,–,inactive,–
Nc1ccccc1NC(=O)c1ccc(CNc2cccc(/N=N/c3ccccc3)c2)cc1,Active,Active,Active,Tde,Tde,Tde,Active,Active,Active,Non-Toxic,inactive,inactive,–,–,–,inactive,–,–,–,inactive
